Results from ChEMBL document CHEMBL1153206, “Evaluation of pyrrolin-2-one derivatives synthesized by a new practical method as inhibitors of plasminogen activator inhibitor-1 (PAI-1)” (Bioorg Med Chem Lett, 2010).

target: T1, Plasminogen activator inhibitor 1 (Homo sapiens, UniProt P05121); experiment: Inhibition of human PAI1 at 10 uM
T1 sequence (P05121 whole entry): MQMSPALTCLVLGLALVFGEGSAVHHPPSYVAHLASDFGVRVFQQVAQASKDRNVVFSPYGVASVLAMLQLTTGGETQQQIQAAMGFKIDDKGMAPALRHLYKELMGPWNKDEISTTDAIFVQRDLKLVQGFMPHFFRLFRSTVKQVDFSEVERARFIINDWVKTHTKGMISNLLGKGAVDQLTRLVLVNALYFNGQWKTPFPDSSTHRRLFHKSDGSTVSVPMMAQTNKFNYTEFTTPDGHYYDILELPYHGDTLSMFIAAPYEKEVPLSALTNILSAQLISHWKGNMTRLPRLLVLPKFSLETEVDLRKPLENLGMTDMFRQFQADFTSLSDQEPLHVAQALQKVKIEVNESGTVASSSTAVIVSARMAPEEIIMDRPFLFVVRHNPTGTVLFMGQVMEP

inhibition [%]	SMILES
36	O=C1N/C(=C\c2ccco2)C(c2ccco2)=C1c1ccccc1

target: T1, Plasminogen activator inhibitor 1; experiment: Inhibition of human PAI1 at 15 uM

inhibition [%]	SMILES
34	O=C1N/C(=C\c2ccc(C(=O)O)o2)C(c2ccco2)=C1c1ccccc1

target: T1, Plasminogen activator inhibitor 1; experiment: Inhibition of human PAI1

SMILES	IC50 [µM]
COc1ccccc1C1=C(c2ccccc2)C(=O)N/C1=C\c1ccc(/C=C/C(=O)O)o1	0.65
N#C/C=C/c1ccc(/C=C2\NC(=O)C(c3ccccc3)=C2c2ccco2)o1	1.2
O=C(O)/C=C/c1ccc(/C=C2\NC(=O)C(c3ccccc3)=C2c2ccco2)o1	1.5
COc1ccccc1C1=C(c2ccccc2)C(=O)N/C1=C\c1ccc(C)o1	0.94

Further lines, results first:

IC50 [µM]	SMILES
0.69	COc1ccc(C2=C(c3cccs3)/C(=C/c3ccc(/C=C/C(=O)O)o3)NC2=O)cc1OC
1.1	COc1ccc(C2=C(c3ccco3)/C(=C/c3ccc(/C=C/C(=O)O)o3)NC2=O)cc1OC
9.6	O=C(O)COc1cccc(/C=C2\NC(=O)C(c3ccccc3)=C2c2ccccc2)c1
7.8	COc1ccc(C2=C(c3ccco3)/C(=C/c3ccncc3)NC2=O)cc1OC
